According to paper PMC4768790 (The New phytologist, 2015):

How the values were obtained:
HopZ1a = HopZ1a (Pseudomonas syringae, UniProt Q6VE93); experiment: in vitro autoacetylation assay, […] autoradiography; type: biochemical; conditions: 100 nM IP6, [14C]-acetyl-CoA, 50 mM HEPES pH 8.0, 30°C, 1 h; activator
PopP2 = PopP2 (Ralstonia pseudosolanacearum, UniProt Q8Y125); conditions: labelled compound; 50 mM HEPES pH 8.0, 30°C, 1 h
PopP2, sequence (Q8Y125 1-488): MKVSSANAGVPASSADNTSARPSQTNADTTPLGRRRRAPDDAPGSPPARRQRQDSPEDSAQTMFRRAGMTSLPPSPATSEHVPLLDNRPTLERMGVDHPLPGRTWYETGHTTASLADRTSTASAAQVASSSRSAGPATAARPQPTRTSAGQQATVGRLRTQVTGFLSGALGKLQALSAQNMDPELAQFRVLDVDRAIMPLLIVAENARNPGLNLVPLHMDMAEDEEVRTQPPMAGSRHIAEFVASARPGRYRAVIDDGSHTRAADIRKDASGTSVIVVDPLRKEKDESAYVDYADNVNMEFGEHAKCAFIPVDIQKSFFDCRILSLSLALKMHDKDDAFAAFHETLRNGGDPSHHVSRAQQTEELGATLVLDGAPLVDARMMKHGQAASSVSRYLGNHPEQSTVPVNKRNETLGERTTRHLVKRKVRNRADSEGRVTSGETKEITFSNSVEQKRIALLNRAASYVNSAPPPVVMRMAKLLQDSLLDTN

HopZ1a, sequence (Q6VE93 whole entry): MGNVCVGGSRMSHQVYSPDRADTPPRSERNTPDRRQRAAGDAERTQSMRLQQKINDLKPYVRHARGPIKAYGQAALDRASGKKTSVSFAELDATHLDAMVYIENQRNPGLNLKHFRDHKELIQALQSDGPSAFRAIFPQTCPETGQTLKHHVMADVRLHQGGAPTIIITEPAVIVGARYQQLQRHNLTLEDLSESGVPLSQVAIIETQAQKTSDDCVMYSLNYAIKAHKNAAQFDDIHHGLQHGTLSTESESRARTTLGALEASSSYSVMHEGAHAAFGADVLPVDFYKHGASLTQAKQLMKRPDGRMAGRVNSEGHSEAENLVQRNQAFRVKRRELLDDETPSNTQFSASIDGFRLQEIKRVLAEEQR

Structure (SMILES)	enhancement of autoacetylation by IP6 (HopZ1a)	in vitro autoacetylation assay, 14C autoradiography (PopP2)
O=P(O)(O)O[C@H]1[C@H](OP(=O)(O)O)[C@@H](OP(=O)(O)O)[C@H](OP(=O)(O)O)[C@@H](OP(=O)(O)O)[C@H]1OP(=O)(O)O [IP6]	c. 40	
CC(=O)SCCNC(=O)CCNC(=O)[C@H](O)C(C)(C)COP(=O)(O)OP(=O)(O)OC[C@H]1O[C@@H](n2cnc3c(N)ncnc32)[C@H](O)[C@@H]1OP(=O)(O)O [acetyl-CoA]		the mutant PopP2(S447AS449A) is no longer autoacetylated
